# Experimental data taken from paper PMC8429728, “TNK1 is a ubiquitin-binding and 14-3-3-regulated kinase that can be targeted to block tumor growth” (Nature Communications, 2021).
# Like-named read-outs stand apart in the source and are kept apart here.
# Key:
# Assay in all cases: biochemical
# Parameters in all cases: Reaction Biology 371-kinase panel at Km ATP, per cent enzyme activity relative to DMSO, single dose in duplicate
# Settings in all cases: duplicate measurements, Km ATP
# ALK5/TGFBR1 = ALK5/TGFBR1 (Homo sapiens, UniProt P36897)
# Method in brief: (§1)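 Percent kinase activity relative to vehicle (DMSO) is reported for a 371-kinase in vitro panel at 300 nM compound; IC50 values derive from variable-slope sigmoidal fits with the lower plateau fixed at 0.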
# ARAF = biological target: T1, ARAF (Homo sapiens, UniProt P10398)
# T1 sequence (P10398 1-606): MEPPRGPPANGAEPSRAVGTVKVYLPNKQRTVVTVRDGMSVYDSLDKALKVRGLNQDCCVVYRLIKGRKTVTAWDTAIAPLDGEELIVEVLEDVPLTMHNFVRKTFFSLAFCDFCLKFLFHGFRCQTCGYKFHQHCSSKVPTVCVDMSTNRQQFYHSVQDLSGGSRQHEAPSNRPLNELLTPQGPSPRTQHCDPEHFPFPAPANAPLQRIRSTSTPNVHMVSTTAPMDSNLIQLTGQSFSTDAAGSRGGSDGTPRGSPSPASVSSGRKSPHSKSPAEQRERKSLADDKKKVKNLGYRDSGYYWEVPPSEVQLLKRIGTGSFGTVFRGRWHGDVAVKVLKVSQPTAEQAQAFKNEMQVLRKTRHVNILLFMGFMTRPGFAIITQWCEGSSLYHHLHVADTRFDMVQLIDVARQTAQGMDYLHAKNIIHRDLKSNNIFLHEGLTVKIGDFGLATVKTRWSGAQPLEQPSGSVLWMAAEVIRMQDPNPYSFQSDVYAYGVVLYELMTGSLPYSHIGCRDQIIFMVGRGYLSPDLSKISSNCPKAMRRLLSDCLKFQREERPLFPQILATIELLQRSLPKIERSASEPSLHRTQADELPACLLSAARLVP
# Method in brief: as §1
# BTK = BTK (Homo sapiens, UniProt Q06187)
# Method in brief: as §1
# CAMK4 = CAMK4 (Homo sapiens, UniProt Q16566)
# Method in brief: as §1
# CDK4/cyclin D1 = CDK4/cyclin D1 (Homo sapiens, UniProt P11802)
# Method in brief: as §1
# CK2a2 = biological target: T2, CK2a2 (Homo sapiens, UniProt P19784)
# T2 construct: gene CSNK2A2
# Method in brief: as §1
# EPHA4 = EPHA4 (Homo sapiens, UniProt P54764)
# Method in brief: as §1
# ERK2/MAPK1 = ERK2/MAPK1 (Homo sapiens, UniProt P28482)
# Method in brief: as §1
# GRK3 = GRK3 (Homo sapiens, UniProt P35626)
# Method in brief: as §1
# MYLK4 = MYLK4 (Homo sapiens, UniProt Q86YV6)
# Method in brief: as §1
# P38d/MAPK13 = P38d/MAPK13 (Homo sapiens, UniProt O15264)
# Method in brief: as §1
# PDGFRa = PDGFRa (Homo sapiens, UniProt P16234)
# Method in brief: as §1
# PDK1/PDPK1 = PDK1/PDPK1 (Homo sapiens, UniProt O15530)
# Method in brief: as §1
# PKAcb = biological target: T3, PKAcb (Homo sapiens, UniProt P22694)
# T3 construct: gene PRKACB
# Method in brief: as §1
# PYK2 = biological target: T4, PYK2 (Homo sapiens, UniProt Q14289)
# T4 construct: gene PTK2B
# Method in brief: as §1
# STK38/NDR1 = STK38/NDR1 (Homo sapiens, UniProt Q15208)
# Method in brief: as §1
# [1] = read-out: % Enzyme Activity (relative to DMSO controls) / TP-0005801 (0.3µM) / Data 1
# [2] = read-out: % Enzyme Activity (relative to DMSO controls) / TP-0005801 (0.3µM) / Data 2
# Chain of BTK (Q06187 whole entry): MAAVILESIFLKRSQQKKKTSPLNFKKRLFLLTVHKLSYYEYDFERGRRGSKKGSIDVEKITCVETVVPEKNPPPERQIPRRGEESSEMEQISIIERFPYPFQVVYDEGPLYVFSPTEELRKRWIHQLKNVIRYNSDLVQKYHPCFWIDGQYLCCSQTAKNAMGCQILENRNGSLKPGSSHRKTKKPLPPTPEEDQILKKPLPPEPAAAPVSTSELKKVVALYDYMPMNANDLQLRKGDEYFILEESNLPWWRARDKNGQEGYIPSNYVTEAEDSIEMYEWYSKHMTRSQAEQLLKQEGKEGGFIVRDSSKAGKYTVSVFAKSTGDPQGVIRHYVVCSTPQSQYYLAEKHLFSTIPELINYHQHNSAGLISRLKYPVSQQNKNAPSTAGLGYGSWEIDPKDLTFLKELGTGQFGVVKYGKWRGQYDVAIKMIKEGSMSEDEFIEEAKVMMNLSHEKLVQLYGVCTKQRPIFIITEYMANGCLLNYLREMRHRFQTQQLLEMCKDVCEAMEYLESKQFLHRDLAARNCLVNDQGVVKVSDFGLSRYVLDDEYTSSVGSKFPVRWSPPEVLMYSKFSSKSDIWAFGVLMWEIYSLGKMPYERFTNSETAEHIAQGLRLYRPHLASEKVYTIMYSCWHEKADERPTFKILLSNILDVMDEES
# Chain of ERK2/MAPK1 (P28482 whole entry): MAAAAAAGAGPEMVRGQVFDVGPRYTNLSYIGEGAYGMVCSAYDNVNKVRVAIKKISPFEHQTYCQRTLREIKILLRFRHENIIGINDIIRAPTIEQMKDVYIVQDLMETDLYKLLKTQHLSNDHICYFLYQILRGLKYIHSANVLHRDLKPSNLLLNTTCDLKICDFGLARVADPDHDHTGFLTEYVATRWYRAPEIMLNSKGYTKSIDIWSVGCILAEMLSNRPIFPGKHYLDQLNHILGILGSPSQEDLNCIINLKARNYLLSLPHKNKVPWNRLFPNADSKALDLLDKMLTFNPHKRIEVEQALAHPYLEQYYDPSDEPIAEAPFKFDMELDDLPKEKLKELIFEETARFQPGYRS
# Chain of PDK1/PDPK1 (O15530 whole entry): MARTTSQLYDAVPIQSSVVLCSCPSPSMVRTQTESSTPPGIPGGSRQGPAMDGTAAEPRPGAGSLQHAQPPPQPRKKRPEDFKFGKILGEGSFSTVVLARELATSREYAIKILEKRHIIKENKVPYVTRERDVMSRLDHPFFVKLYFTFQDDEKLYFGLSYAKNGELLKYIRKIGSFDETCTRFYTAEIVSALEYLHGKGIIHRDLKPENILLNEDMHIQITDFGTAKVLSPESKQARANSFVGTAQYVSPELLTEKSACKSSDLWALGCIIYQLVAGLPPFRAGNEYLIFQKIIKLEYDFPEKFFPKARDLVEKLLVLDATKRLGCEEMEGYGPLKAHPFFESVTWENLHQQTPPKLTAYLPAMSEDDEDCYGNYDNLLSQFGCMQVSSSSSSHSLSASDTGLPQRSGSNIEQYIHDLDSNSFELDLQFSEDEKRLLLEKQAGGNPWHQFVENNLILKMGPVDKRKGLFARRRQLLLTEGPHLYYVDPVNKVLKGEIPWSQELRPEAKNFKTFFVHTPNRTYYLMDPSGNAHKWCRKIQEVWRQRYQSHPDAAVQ
# Chain of PDGFRa (P16234 whole entry): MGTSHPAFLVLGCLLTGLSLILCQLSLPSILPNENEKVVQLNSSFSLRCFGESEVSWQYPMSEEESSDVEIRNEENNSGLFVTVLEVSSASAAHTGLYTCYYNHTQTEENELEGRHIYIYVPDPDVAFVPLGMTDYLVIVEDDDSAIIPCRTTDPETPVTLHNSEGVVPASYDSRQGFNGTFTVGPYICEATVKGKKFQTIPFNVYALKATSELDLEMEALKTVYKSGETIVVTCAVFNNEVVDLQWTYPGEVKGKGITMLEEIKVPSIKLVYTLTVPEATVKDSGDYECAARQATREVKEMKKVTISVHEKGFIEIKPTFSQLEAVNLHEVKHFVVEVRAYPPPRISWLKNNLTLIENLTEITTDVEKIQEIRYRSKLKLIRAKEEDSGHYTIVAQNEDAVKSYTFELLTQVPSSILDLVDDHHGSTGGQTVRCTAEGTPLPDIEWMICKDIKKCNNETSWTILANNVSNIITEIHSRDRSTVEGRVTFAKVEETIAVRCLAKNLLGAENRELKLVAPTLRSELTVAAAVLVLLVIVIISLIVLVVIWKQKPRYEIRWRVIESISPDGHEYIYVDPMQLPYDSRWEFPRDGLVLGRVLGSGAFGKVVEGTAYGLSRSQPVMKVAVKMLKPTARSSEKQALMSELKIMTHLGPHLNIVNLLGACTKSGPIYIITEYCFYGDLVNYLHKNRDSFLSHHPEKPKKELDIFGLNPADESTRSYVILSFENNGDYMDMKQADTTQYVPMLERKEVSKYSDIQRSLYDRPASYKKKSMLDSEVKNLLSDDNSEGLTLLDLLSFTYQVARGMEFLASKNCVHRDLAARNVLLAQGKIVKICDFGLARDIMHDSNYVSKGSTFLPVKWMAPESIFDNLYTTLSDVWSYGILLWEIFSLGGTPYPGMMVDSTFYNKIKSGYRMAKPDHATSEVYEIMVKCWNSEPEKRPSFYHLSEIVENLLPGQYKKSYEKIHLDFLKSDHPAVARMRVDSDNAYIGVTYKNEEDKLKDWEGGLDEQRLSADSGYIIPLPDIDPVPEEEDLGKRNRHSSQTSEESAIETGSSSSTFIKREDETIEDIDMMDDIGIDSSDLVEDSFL
# Chain of P38d/MAPK13 (O15264 whole entry): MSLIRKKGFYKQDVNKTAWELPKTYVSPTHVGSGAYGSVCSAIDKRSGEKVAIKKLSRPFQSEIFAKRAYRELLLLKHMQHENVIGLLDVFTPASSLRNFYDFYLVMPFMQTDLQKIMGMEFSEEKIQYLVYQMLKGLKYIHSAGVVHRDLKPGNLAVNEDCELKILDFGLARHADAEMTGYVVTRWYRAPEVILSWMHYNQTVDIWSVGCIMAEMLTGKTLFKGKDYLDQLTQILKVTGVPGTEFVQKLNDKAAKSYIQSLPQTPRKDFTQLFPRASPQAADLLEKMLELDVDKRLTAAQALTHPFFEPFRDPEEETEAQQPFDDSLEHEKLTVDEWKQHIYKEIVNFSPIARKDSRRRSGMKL
# Chain of GRK3 (P35626 whole entry): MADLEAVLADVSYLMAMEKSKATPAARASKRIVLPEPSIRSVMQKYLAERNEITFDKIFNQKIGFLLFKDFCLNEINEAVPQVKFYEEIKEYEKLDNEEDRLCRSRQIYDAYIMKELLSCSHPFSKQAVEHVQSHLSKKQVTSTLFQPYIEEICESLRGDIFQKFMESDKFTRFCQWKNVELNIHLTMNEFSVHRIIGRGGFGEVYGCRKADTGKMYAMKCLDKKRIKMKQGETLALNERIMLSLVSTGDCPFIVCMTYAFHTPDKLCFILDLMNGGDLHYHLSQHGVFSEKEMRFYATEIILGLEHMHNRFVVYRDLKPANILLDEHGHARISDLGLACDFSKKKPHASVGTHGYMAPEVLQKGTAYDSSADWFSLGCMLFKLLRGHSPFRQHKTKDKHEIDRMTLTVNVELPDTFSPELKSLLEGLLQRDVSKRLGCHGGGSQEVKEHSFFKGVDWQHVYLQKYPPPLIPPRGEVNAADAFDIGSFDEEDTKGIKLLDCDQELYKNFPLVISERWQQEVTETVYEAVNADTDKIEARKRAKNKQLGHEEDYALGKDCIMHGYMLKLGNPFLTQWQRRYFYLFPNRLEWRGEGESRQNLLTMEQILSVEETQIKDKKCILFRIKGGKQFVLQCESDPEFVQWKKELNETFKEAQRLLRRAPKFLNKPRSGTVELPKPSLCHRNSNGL
# Chain of MYLK4 (Q86YV6 whole entry): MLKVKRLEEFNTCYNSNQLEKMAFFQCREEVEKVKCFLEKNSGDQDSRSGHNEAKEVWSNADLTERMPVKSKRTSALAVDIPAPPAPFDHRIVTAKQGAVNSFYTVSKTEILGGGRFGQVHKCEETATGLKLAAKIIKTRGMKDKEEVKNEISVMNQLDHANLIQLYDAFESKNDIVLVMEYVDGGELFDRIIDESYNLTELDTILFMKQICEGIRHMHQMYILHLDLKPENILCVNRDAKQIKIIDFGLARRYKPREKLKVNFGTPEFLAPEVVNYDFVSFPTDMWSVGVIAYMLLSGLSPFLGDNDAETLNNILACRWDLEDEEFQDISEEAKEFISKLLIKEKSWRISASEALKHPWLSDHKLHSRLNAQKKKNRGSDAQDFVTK
# Chain of CAMK4 (Q16566 whole entry): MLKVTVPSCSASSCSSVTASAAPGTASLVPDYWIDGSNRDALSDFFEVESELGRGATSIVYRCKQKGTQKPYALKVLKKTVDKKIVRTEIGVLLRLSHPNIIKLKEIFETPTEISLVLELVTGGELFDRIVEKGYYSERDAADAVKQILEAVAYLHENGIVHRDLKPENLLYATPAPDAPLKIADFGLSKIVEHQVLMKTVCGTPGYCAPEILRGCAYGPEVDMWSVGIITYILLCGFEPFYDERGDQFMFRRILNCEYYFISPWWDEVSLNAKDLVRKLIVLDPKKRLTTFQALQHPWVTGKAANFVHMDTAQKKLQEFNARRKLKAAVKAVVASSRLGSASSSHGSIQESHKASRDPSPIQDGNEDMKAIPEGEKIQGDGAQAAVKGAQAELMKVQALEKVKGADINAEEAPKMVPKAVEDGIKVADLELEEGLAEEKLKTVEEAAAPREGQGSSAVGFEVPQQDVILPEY
# T2 sequence (P19784 whole entry): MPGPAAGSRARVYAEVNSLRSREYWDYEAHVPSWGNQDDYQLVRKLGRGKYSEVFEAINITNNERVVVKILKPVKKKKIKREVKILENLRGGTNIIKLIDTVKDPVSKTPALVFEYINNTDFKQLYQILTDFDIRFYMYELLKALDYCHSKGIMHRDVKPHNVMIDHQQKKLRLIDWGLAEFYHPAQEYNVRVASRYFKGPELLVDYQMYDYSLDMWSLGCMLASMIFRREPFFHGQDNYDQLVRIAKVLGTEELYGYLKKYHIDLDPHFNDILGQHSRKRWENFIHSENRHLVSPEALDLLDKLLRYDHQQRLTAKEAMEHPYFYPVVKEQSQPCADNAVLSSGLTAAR
smiles,measurement,setting,value
COc1cc(N2CCN(C)CC2)c(C)cc1Nc1ncc(Br)c(Nc2cccnc2N(C)C)n1 [TP-5801],remaining activity at 0.3 µM,ALK5/TGFBR1; [1],88.1%
same,remaining activity at 0.3 µM,ALK5/TGFBR1; [2],88%
same,remaining activity at 0.3 µM,ARAF; [1],88.1%
same,remaining activity at 0.3 µM,ARAF; [2],82.3%
same,remaining activity at 0.3 µM,BTK; [1],93.6%
same,remaining activity at 0.3 µM,BTK; [2],92.1%
same,remaining activity at 0.3 µM,CAMK4; [1],96.9%
same,remaining activity at 0.3 µM,CAMK4; [2],94.7%
same,remaining activity at 0.3 µM,CDK4/cyclin D1; [1],106%
same,remaining activity at 0.3 µM,CDK4/cyclin D1; [2],104%
same,remaining activity at 0.3 µM,CK2a2; [1],107%
same,remaining activity at 0.3 µM,CK2a2; [2],89.1%
same,remaining activity at 0.3 µM,EPHA4; [1],98.9%
same,remaining activity at 0.3 µM,EPHA4; [2],98.5%
same,remaining activity at 0.3 µM,ERK2/MAPK1; [1],87.1%
same,remaining activity at 0.3 µM,ERK2/MAPK1; [2],86.1%
same,remaining activity at 0.3 µM,GRK3; [1],93.9%
same,remaining activity at 0.3 µM,GRK3; [2],93%
same,remaining activity at 0.3 µM,MYLK4; [1],108%
same,remaining activity at 0.3 µM,MYLK4; [2],96.9%
same,remaining activity at 0.3 µM,P38d/MAPK13; [1],102%
same,remaining activity at 0.3 µM,P38d/MAPK13; [2],91.4%
same,remaining activity at 0.3 µM,PDGFRa; [1],84.6%
same,remaining activity at 0.3 µM,PDGFRa; [2],84.5%
same,remaining activity at 0.3 µM,PDK1/PDPK1; [1],89.9%
same,remaining activity at 0.3 µM,PDK1/PDPK1; [2],89.6%
same,remaining activity at 0.3 µM,PKAcb; [1],98%
same,remaining activity at 0.3 µM,PKAcb; [2],96.7%
same,remaining activity at 0.3 µM,PYK2; [1],23.7%
same,remaining activity at 0.3 µM,PYK2; [2],23.5%
same,remaining activity at 0.3 µM,STK38/NDR1; [1],38.8%
same,remaining activity at 0.3 µM,STK38/NDR1; [2],38.7%
